This is an account of results in PubChem BioAssay AID1259407 (Chemical Carcinogenesis Research Information System (CCRIS), 2018).

The subject of the data set is CCRIS mutagenicity, Ames/micronucleus/aberration tests. The experiment in a line: CCRIS mutagenicity studies. To be noted: Test System: AMES SALMONELLA TYPHIMURIUM
Where [1] appears, read: Strain/Indicator: TA98, Metabolic Activation: NONE, Method: STANDARD PLATE.
[2] abbreviates: Strain/Indicator: TA100, Metabolic Activation: NONE, Method: STANDARD PLATE.

Activity calls are given as the source filed them. No rule for the calls is given here.

With `CCN(C(=S)[S-])c1ccccc1.CCN(C(=S)[S-])c1ccccc1.[Zn+2]`, the mutagenic call is “inactive; negative” under setting [1]; “inactive; negative” (Strain/Indicator: TA98, Metabolic Activation: S-9, Method: STANDARD PLATE); “inactive; negative” under setting [2]; “inactive; negative” (Strain/Indicator: TA100, Metabolic Activation: S-9, Method: STANDARD PLATE).
In the case of `CC(C)COS(=O)(=O)c1ccccc1`, the mutagenic call runs as follows: under setting [1], “active; positive”; (Strain/Indicator: TA98, Metabolic Activation: RAT, LIVER, S-9, Method: STANDARD PLATE) “active; positive”; (Strain/Indicator: TA100, Metabolic Activation: RAT, LIVER, S-9, Method: STANDARD PLATE) “active; positive”.
With `CCCCCCCC/C=C\CCCCCCCCN` (tested in a mixture with another compound), the mutagenic call is “inactive; negative” under setting [1]; “active; positive” (Strain/Indicator: TA98, Metabolic Activation: RAT, LIVER, S-9, AROCLOR 1254, Method: STANDARD PLATE); “inactive; negative” under setting [2]; “inactive; negative” (Strain/Indicator: TA100, Metabolic Activation: RAT, LIVER, S-9, AROCLOR 1254, Method: STANDARD PLATE); “inactive; negative” (Strain/Indicator: TA1535, Metabolic Activation: NONE, Method: STANDARD PLATE); “inactive; negative” (Strain/Indicator: TA1535, Metabolic Activation: RAT, LIVER, S-9, AROCLOR 1254, Method: STANDARD PLATE). In addition, the mutagenic call is “inactive; negative” (Strain/Indicator: TA1537, Metabolic Activation: NONE, Method: STANDARD PLATE); “inactive; negative” (Strain/Indicator: TA1537, Metabolic Activation: RAT, LIVER, S-9, AROCLOR 1254, Method: STANDARD PLATE); “inactive; negative” (Strain/Indicator: TA1538, Metabolic Activation: NONE, Method: STANDARD PLATE); “active; positive” (Strain/Indicator: TA1538, Metabolic Activation: RAT, LIVER, S-9, AROCLOR 1254, Method: STANDARD PLATE).
Turning to `[Be]=[O]`, the mutagenic call reads like this: (Strain/Indicator: TA98, Metabolic Activation: NONE, Method: PREINCUBATION) “inactive; negative”; (Strain/Indicator: TA98, Metabolic Activation: RAT, LIVER, S-9 (10%), Method: PREINCUBATION) “inactive; negative”; (Strain/Indicator: TA100, Metabolic Activation: NONE, Method: PREINCUBATION) “inactive; negative”; (Strain/Indicator: TA100, Metabolic Activation: RAT, LIVER, S-9 (10%), Method: PREINCUBATION) “inactive; negative”.
